Here are results for two compounds from US8633177B2, “Nitroxyl (HNO) releasing compounds and uses thereof in treating diseases” (The United States of America, as represented by the …, priority 2010, dated 2014).

Like-named read-outs stand apart in the source and are kept apart here.

Data set [1] relates to caspase-3. Nature of the data set: Caspase-3 fluorescence assay, MDA-MB-468. It is filed as cell-based, human. The following applies: 12 h. On the procedure: The caspase-3 activity in the presence of IPA/NO-ASA and DEA/NO-ASA was measured using caspase-3 fluorescence assay kit (Cat No. 10009135, Cayman Chemical). Cells were plated at a concentration of 50,000 cells per well in a 96 well plate and grown overnight. Then the cells were treated with different concentrations of the compounds and controls for 12 h. After 12 h, the plate was centrifuged at 800 g and the media was removed by aspiration. 100 μL of lysis buffer was added to each well and the plate was incubated for […] at room temperature. 100 μL of a caspase-3 substrate solution was added to each well and incubated for 30 min after which the fluorescence was read at excitation of 485 nm and emission of 535 nm.

Data set [2] deals with glyceraldehyde-3-phosphate dehydrogenase (GAPDH) (Homo sapiens, UniProt P04406). The data set is described as follows: GAPDH activity, MDA-MB-231. It is filed as cell-based. More on the design: endogenous in cells; host or cells: MDA-MB-231, MDA-MB-468, MCF-7, MCF-10A. The following applies: MDA-MB-231, 100 μM. The protocol: Cells were plated at a concentration of 30,000 cells per well and grown overnight. Cells were treated with 100 μM IPA/NO-aspirin and DEA/NO-aspirin for 1, 3, and 6 h after which 200 μL of KDalert lysis buffer was added to each well. The plate was incubated at 4° C. for 20 min to lyse the cells. 10 μL of cell lysate was transferred to a clean 96 well plate and 90 μL of KDalert mastermix was added to each well and the fluorescence was measured at excitation of 540 nm and emission of 570 nm.

Data set [3] relates to A549 cells. The data set is described as follows: Intracellular NO/HNO by DAF-FM diacetate in A549 cells. The class given is cell-based. The protocol:
The intracellular NO and HNO were determined by using 4-amino-5-methylamino-2′,7′-difluorofluorescein diacetate (DAF-FM diacetate) as the reporter molecule. Cells were plated at a concentration of 30,000 cells per well in a 96 cell plate and grown overnight. Then DAF-FM diacetate in DMSO was added to each well with a final concentration of 10 μM and incubated for 30 min. Each well was washed three times with PBS pH 7.4. The desired compound was then added and the fluorescence was measured at an excitation of 485 nm and emission of 535 nm using PerkinElmer HTS 7000 plate reader.
Both NO and HNO increased the fluorescence of DAF. The NO/HNO release profiles for compounds 4 and 8 within A549 cells were determined by loading the cells with DAF-FM diacetate, a cell permeable dye, which is cleaved by esterase to form DAF-FM and reacts with NO to form benzotriazole derivative with an excitation of 495 nm and emission of 515 nm (Kojima et al., Chemical & Pharm. Bulletin, 462 373-75 (1998)). […] Both 4 and 8 show temporal release in the presence and absence of cells. […] Moreover, when DAF-FM diacetate is present both inside and outside the cells, the fluorescence intensity is ten times higher than that without cells.

In data set [4] the test system is MB-231 cells. The data set is described as follows: MTT cell survival, MDA-MB-231. It is filed as cell-based, human. The following applies: MTT assay. On the procedure: (§1) MDA-MB-231, MCF-7 and MDA-MB-468, human breast carcinoma cell lines and MCF-10A, breast […] (American Type Culture Collection, Manassas, Va.) were grown as monolayers in RPMI 1640 supplemented with 10% FCS (Hyclone), penicillin (50 units/ml), streptomycin ([…]; Life Technologies, Inc., Grand Island, N.Y.) and endothelial growth media (Lonanza) respectively. Cells were seeded at a density of 1×10^6 cells/100-cm^2 culture dish and incubated at 37° C. in 5% CO2 and 80% relative humidity. Single-cell suspensions were obtained by trypsinization (0.05% trypsin/EDTA), and cells were counted using a Beckman cell counter.
(§2) 1000× stock solutions aspirin, of a DEA/NO-ASA, and IPA/NO-ASA were made in DMSO and final concentration in the media or PBS was adjusted to 0.1% DMSO.
(§3) The effect of NONO-aspirin on cell proliferation was studied using an MTT assay. The effect of DEA/NO-ASA, IPA/NO-ASA, aspirin, IPA/NO and DEA/NO was measured using the MTT assay. Cells were plated at a concentration of 8,000-10,000 cells per well in a 96 well plate and grown overnight. Cells were treated with different concentrations of the compounds and controls for 48 h. After 48 h, a solution of 5 mg/ml MTT was added to each well and incubated for 1 h. Then the media was removed from each well and 100 uL DMSO was added to each well and the absorbance was read at 550 nm. […]
For orientation: Tetrazolium dyes change colour on reduction, which living cells bring about.

Data set [5] concerns Prostaglandin E2. Nature of the data set: PGE2 production, prostaglandin E2 EIA kit. To be noted: 24 h. It is filed as cell-based. The protocol: Cells were plated at a concentration of 50,000 cells per well and grown overnight. Then 25, 50, and 100 μM of DMSO, IPA/NO-aspirin, and DEA/NO-aspirin were added to the corresponding well for 24 h and incubated at 37° C. The supernant was then analyzed for PGE2 activity using prostaglandin E2 EIA kit (Cayman Cat No. 514010).

Data set [6] has as its system COX-2 mRNA. Nature of the data set: COX mRNA levels. The following applies: Control 1.0. The class given is cell-based. An excerpt:
PGE2 levels are a direct measure of COX-2 activity. […] Increased COX-2 expression in the presence of aspirin has been reported previously (Davies et al., Alimentary Pharm. & Ther. 11(6):1101-08 (1997))). Both DEA/NO and DEA/NO-aspirin seem to augment the effect of aspirin while IPA/NO and IPA/NO-aspirin nullifies the effect and brings it back to the control level (Table 3).

Data set [7] has as its system breast cancer cells. Nature of the data set: MTT cell survival, breast cancer cells (cell line not given). The class given is cell-based, human. The following applies: 48 h of treatment, cell line not named. On the procedure: The effect of NONO-aspirin on cell proliferation was studied using an MTT assay. The effect of DEA/NO-ASA, IPA/NO-ASA, aspirin, IPA/NO and DEA/NO was measured using the MTT assay. Cells were plated at a concentration of 8,000-10,000 cells per well in a 96 well plate and grown overnight. Cells were treated with different concentrations of the compounds and controls for 48 h. After 48 h, a solution of 5 mg/ml MTT was added to each well and incubated for 1 h. Then the media was removed from each well and 100 uL DMSO was added to each well and the absorbance was read at 550 nm. Inhibition of growth with different treatments was reported as percentage of corresponding control.

The subject of data set [8] is MB-231 cells stably transfected with green fluorescent protein (GFP). The data set is described as follows: Tumor size in nude mice implanted with MB-231-GFP cells. To be noted: daily injection for 5 weeks, equi-molar dosages, compared to control. The class given is in vivo. The protocol:
40 Nude mice were implanted with 7.5E5 MB-231 cells stably transfected with green fluorescent protein (GFP) per animal and allowed to grow for 14 days. The animals were randomly divided into four groups: untreated as a control, aspirin treated, IPA/NO-aspirin and DEA/NO-aspirin. Treated groups were injected daily with equi-molar dosages of the corresponding compounds (DEA/NO-aspirin=16.25 mg/Kg, IPA/NO-aspirin=15.75 mg/Kg, Aspirin=9 mg/Kg) for the next 5 weeks daily and the tumor size was measured using in vivo fluorescent imaging for quantification of the GFP tag (FIG. 9A (mammary tumor) and FIG. 9B (brain tumor)). The animals were then sacrificed to assess their brain for metastasis.

The test system of data set [9] is MCF-7 cells. The data set is described as follows: MTT cell survival, MCF-7. It is filed as cell-based, human. The following applies: MTT assay. On the procedure: as §1, §2, §3

glyceraldehyde-3-phosphate dehydrogenase (GAPDH), sequence (P04406 whole entry): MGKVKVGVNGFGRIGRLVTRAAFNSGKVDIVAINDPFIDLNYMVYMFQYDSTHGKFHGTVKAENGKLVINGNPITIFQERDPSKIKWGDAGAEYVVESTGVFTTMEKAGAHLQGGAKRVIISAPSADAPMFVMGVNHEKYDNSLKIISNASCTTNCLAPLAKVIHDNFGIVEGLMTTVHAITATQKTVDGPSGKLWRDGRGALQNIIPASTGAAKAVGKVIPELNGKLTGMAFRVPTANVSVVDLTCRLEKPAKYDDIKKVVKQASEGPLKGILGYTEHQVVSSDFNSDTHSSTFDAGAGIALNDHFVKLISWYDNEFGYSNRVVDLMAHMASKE

What is called IC50 is the point on the concentration scale where inhibition reaches its midpoint. Take `CCN(CC)[N+]([O-])=NOCOC(=O)c1ccccc1OC(C)=O` [DEA/NO-aspirin, O^2-(Acetylsalicyloyloxymethyl)-1-(N,N-Diethylamino)-diazen-1-ium-1,2-diolate]: the “Caspase-3 Activity” value in data set [1] (MDA-MB-468, 25 μM) was determined as 0.40 U/mL; in [1] (MDA-MB-468, 50 μM), 0.38 U/mL; in data set [1] (MDA-MB-468, 100 μM), 0.81 U/mL. Also, the figures for the “GAPDH Activity” value in data set [2] (1 h), in data set [2] (3 h) and in data set [2] (6 h) were 0.150 U/mL, 0.160 U/mL and 0.150 U/mL, respectively. Besides, the cell penetration entry in data set [3] is given as “permeated the cell membrane with minimal decomposition”; in data set [3] (listed as 8), “penetrate the cells”. For the same compound, the values for the IC50 in data set [4], in data set [7] and in [9] were 90 µM, 75 µM and 120 µM, respectively. Moreover, the “Prostaglandin E2” value was determined as 21 pg/mL in data set [5] (25 μM), 38 pg/mL in [5] (50 μM) and 36 pg/mL in data set [5] (100 μM). Besides, the “COX-2 mRNA level relative to control” value in data set [6] came to 6.5. In data set [8], the tumor size result is reported as “effective in reducing the tumor size”.
On to `CC(=O)Oc1ccccc1C(=O)OCON=[N+]([O-])NC(C)C` [IPA/NO-aspirin, O^2-(Acetylsalicyloyloxymethyl)-1-(N-isopropylamino)-diazen-1-ium-1,2-diolate], for which the “Caspase-3 Activity” value in data set [1] (MDA-MB-468, 25 μM) was determined as 0.60 U/mL; in data set [1] (MDA-MB-468, 50 μM), 0.60 U/mL; in data set [1] (MDA-MB-468, 100 μM) it was 0.50 U/mL. Moreover, the “GAPDH Activity” value in [2] (1 h) turned out to be 0.120 U/mL; in [2] (3 h) it was 0.070 U/mL; in data set [2] (6 h), 0.050 U/mL. The figures for the cell penetration result in data set [3] and in [3] (listed as 4) were “permeated the cell membrane with minimal decomposition” and “penetrate the cells”, respectively. Besides, the values for the IC50 in [4], in data set [7] and in [9] were 95 µM, 50 µM and 90 µM, respectively. Moreover, the “Prostaglandin E2” value in data set [5] (25 μM) came to 17 pg/mL; in data set [5] (50 μM) it was 14 pg/mL; in data set [5] (100 μM) it was 13 pg/mL. Besides, in [6], the “COX-2 mRNA level relative to control” value is recorded as 0.8. Further, in data set [8], the tumor size result is recorded as “effective in reducing the tumor size”.
